Measured values published in patent US10280170B2, “Substituted 4,5,6,7-tetrahydro-pyrazolo[1,5-a]pyrazine derivatives and 5,6,7,8-tetrahydro-4H-pyrazolo[1,5-a][1,4]diazepine derivatives as Ros1 inhibitors” (Janssen Pharmaceutica NV, priority 2014, dated 2019).
Like-named read-outs stand apart in the source and are kept apart here.

How the values were obtained:
[1] = system: Ba/F3 cells containing Ros1 wild-type protein + IL-3; test: Ba/F3-Ros1 cell proliferation counter-screen, wild-type protein in the presence of 10 ng/ml murine IL-3; assay type: cell-based; details: Mus musculus, BaF3, 24 h, read-out: BaF3-ROS1 + IL3 pIC50 (converted)
Method: (§1) This assay was carried out with Ba/F3 cells containing three different versions of Ros1: the wild-type protein, protein with a mutation at the gatekeeper residue (L2026M), and protein with a mutation identified in a tumor from a patient that became resistant to crizotinib (Xalkori®) treatment (G2032R). Compounds were solubilized in 100% DMSO (dimethyl sulfoxide) and sprayed into polystyrene, tissue culture treated 384-well plates. A 50 μl volume of cell culture medium (phenol red free RPMI-1640, 10% FBS (fetal bovine serum), 2 mM L-Glutamine) containing 20000 Ba/F3-Ros1 cells was added to each well and the plates were placed in an incubator at 37° C. and 5% CO2. After 24 hours, 10 μl of Alamar Blue solution (0.5 mM K3Fe(CN)6, 0.5 mM K4Fe(CN)6, 0.15 mM Resazurin and 100 mM Phosphate Buffer) was added to the wells, incubated for 4 hours at 37° C. and 5% CO2 before RFU's (Relative Fluorescence Units) (ex. 540 nm., em. 590 nm.) were measured in a fluorescence plate reader.
As a counter-screen the same experiment was performed for the wild-type protein in the presence of 10 ng/ml murine IL-3.

[2] = biological target: Ba/F3 cells containing Ros1 with a mutation at the gatekeeper residue (L2026M) (Homo sapiens, UniProt P08922, L2026M, cells depend on it, form not given); test: Ba/F3-Ros1 cell proliferation assay, L2026M gatekeeper mutant; assay type: cell-based, murine; details: without IL-3
Method: (§2) Ba/F3-Ros1 Cell Proliferation Assay
as §1

[3] = biological target: T1, Ba/F3 cells containing Ros1 wild-type protein (Homo sapiens, UniProt P08922, cells depend on it, form not given); test: Ba/F3-Ros1 cell proliferation assay, wild-type Ros1; assay type: cell-based, murine; details: without IL-3
T1 construct: The background only speaks of 'a number of different unrelated proteins' and names SLC34A2-ROS1 for HCC78 cells
Method: as §2, §1

[4] = biological target: T2, Ros1 enzyme (Homo sapiens, UniProt P08922); test: Ros1 enzymatic assay; assay type: biochemical; details: Ros1 enzymatic assay; read-out: ROS1 pIC50 (converted)
T2 construct: 0.5 μg/ml Ros1 enzyme
Method: Compounds were spotted onto white 384-well Proxiplate plus plates (Perkin Elmer) to which 5 μl of enzyme mix (0.5 μg/ml Ros1 enzyme, 50 mM Tris-HCl pH7.5, 1 mM EGTA, 10 mM MgCl2, 0.01% Tween-20) and 5 μl of substrate mix (6 μg/ml IRS-Tide [American Peptide Company], 20 μM ATP, 13.33 μCi/ml ATP (adenosine 5′-triphosphate) P^33, 50 mM Tris-HCl pH7.5, 1 mM EGTA (ethylene glycol-bis(2-aminoethylether)-N,N,N′,N′-tetraacetic acid), 10 mM MgCl2, 0.01% Tween-20) were added. After incubation for 120 minutes at room temperature, 10 μl of stop reaction buffer (5 mM EDTA, 50 μM ATP, 0.1% BSA (bovine serum albumin), 0.1% Triton X-100, 50 mM Tris-HCl pH7.5, 1 mM EGTA, 10 mM MgCl2, 0.01% Tween-20) containing 2 mg/ml streptavidin coupled polystyrene imaging beads (Amersham Biosciences) was added and incubated for 15 minutes at room temperature. Plates were centrifuged for 3 minutes at 1500 rpm and signals detected in a LEADseeker imaging system (GE).

[5] = counter-screen, wild-type, 10 ng/ml murine IL-3

T2 sequence (P08922 28-2347): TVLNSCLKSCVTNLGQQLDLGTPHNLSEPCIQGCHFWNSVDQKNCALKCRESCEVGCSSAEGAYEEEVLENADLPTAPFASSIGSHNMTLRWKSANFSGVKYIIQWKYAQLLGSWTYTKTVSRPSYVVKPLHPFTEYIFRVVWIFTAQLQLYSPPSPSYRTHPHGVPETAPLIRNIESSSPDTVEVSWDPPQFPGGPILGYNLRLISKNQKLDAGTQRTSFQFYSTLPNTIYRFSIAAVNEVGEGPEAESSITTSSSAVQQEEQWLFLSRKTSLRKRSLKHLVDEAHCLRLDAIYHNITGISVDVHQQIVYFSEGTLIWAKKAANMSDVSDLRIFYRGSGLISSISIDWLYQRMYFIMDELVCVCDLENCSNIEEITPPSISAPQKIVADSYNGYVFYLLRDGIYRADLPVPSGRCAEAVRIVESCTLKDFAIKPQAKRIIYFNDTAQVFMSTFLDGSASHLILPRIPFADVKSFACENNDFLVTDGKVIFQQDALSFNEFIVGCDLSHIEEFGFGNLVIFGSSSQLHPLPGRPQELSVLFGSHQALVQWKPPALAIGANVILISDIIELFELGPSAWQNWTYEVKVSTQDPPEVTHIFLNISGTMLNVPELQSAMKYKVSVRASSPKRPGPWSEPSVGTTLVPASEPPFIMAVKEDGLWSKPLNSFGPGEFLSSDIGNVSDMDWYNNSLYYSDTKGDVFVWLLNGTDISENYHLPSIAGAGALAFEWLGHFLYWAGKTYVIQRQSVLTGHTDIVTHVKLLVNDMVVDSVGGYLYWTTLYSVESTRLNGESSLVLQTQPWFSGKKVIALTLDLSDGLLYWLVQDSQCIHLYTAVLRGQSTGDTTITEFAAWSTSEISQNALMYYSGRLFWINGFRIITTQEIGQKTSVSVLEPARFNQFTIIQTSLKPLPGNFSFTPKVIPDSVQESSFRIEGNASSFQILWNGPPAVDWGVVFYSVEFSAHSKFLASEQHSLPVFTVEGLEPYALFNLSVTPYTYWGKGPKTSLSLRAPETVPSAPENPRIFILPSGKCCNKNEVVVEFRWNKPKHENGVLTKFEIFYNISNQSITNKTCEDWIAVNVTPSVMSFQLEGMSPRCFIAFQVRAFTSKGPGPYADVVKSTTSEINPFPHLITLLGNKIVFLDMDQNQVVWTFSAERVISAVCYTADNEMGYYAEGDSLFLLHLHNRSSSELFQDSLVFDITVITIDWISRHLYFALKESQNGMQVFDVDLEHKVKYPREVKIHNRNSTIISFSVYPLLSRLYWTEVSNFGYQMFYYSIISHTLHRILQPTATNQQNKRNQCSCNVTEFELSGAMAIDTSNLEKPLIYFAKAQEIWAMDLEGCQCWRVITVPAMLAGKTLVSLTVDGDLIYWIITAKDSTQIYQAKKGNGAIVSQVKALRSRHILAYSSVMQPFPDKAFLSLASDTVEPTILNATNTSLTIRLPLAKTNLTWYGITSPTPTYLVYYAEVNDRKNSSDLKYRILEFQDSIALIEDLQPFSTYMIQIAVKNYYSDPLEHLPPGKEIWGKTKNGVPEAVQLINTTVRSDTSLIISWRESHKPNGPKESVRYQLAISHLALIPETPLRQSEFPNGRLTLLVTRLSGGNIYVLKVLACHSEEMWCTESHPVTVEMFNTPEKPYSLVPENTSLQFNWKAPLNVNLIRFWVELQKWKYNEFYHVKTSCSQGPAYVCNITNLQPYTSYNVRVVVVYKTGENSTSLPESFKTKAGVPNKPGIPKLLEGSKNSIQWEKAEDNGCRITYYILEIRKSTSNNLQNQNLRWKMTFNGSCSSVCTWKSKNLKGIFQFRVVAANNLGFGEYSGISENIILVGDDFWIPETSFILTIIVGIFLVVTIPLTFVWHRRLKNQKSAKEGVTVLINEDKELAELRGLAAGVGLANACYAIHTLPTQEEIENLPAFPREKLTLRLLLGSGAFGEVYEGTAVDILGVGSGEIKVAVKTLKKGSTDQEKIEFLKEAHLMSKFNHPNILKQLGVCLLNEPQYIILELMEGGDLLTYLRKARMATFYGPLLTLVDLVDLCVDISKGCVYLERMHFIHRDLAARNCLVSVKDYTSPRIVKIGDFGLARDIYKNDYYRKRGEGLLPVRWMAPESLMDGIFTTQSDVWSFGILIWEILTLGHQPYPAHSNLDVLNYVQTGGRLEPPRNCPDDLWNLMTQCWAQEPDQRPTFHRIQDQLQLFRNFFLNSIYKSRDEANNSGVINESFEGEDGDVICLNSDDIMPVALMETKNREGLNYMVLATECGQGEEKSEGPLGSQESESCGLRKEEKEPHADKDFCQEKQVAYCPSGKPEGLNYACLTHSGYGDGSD
Sequence of Ba/F3 cells containing Ros1 with a mutation at the gatekeeper residue (L2026M) (P08922 whole entry L2026M, form open): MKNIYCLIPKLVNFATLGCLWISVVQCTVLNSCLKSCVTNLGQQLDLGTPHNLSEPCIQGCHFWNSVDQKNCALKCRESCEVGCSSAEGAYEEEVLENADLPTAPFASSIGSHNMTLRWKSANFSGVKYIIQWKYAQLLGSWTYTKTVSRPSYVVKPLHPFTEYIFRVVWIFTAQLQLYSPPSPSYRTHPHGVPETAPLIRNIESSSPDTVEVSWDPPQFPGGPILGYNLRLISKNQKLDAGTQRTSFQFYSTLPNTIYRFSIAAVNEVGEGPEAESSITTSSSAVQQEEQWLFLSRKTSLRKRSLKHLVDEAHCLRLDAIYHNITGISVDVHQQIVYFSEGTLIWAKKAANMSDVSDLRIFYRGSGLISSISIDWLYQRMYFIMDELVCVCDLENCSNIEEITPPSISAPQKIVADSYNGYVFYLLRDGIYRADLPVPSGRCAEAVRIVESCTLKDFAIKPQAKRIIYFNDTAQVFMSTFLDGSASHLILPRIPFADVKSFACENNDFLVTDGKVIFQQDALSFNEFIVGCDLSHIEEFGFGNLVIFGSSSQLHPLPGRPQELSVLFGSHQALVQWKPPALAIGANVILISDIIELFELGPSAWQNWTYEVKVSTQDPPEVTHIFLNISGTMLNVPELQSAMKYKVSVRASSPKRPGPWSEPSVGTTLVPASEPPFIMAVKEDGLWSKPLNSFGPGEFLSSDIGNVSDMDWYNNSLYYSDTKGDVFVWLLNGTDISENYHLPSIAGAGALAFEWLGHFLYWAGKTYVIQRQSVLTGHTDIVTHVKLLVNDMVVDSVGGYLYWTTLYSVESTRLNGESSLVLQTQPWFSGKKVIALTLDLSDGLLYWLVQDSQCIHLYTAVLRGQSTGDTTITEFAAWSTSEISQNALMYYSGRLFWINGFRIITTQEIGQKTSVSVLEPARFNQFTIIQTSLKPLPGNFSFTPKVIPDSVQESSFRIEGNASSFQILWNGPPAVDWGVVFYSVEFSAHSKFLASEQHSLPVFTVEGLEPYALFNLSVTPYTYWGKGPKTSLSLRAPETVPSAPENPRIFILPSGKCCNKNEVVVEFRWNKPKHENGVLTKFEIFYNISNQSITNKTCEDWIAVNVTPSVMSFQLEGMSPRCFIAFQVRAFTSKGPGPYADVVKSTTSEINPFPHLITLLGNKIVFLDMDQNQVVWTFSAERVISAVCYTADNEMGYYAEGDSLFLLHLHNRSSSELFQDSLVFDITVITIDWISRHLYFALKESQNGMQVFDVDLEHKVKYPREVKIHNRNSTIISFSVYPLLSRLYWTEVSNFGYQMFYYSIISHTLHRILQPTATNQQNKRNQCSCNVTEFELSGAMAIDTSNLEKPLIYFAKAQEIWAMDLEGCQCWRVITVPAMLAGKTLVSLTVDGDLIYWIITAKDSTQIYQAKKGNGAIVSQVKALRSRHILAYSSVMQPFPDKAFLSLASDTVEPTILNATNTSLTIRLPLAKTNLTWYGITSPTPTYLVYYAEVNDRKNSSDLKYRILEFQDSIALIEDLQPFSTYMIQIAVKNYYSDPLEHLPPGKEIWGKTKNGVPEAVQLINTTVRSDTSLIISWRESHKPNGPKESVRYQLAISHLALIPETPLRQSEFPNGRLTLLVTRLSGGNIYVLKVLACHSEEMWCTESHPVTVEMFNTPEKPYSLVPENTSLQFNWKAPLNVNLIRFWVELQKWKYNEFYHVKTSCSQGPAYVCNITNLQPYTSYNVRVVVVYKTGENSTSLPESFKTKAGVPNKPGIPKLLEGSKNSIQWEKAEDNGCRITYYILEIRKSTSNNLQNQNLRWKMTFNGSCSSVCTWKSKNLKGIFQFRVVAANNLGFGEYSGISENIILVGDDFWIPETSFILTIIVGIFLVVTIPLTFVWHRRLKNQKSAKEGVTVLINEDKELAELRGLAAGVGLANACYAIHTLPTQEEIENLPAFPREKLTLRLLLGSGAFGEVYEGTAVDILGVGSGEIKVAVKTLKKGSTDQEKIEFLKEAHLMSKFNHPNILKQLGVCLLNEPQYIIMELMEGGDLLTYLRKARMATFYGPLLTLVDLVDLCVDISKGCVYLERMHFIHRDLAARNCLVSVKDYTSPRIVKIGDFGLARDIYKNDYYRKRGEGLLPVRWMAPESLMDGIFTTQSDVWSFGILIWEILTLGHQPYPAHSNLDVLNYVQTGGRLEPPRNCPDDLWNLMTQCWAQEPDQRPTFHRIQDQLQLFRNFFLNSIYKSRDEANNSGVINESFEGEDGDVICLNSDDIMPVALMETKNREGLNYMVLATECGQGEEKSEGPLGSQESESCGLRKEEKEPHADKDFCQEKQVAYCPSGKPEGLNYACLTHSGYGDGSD
T1 sequence (P08922 whole entry, stated change not applied): as the sequence (P08922 whole entry L2026M, form open) above, with M2026L counted along it

| Compound | CC50 [1] [nM] | Ba/F3 Ros1 L2026M (-IL-3) pIC50 [2] | BaF3-ROS1-IL3 pIC50 [3] | melting point [°C] | IC50 [4] [nM] | CC50 [1, 5] [nM] |
| --- | --- | --- | --- | --- | --- | --- |
| [2H]C([2H])(O)C([2H])([2H])N1CCn2nc(-c3ccncc3)c(-c3ccc(OCc4ccc(C(C)C)cc4)cc3)c2C1=O [Compound 67] | > 10000 | 7.1 | 7.9 | 179 | 25.1 | – |
| CC(C)c1ccc(COc2ccc(-c3c(-c4ccncc4)nn4c3C(=O)N(CC(O)CO)CC4)cc2)c(F)c1F (centres unmarked) [Compound 101] | – | 6.4 | 6.7 | 192 | 398 | > 10000 |
| CC(C)c1ccc(COc2ccc(-c3c(-c4ccncc4)nn4c3C(=O)N(CCO)CC4)cc2)cc1CCO [Compound 83] | > 10000 | 7.2 | 7.6 | 176 | 20 | – |
| CC(C)c1ccc(COc2ccc(-c3c(-c4ccncc4)nn4c3C(=O)N(CCO)CC4)cc2)c(F)c1F [Compound 100] | > 10000 | 6.3 | 6.9 | 172 | 200 | – |
| CC(C)c1ccc(C(C)Oc2ccc(-c3c(-c4ccncc4)nn4c3C(=O)NCC4)cc2)cc1 (centres unmarked) [Compound 143] | 5010 | 6.0 | 6.4 | 217 | 1000 | – |
| CC(C)c1ccc(COc2ccc(-c3c(-c4ccncc4)nn4c3C(=O)N(CCS(C)(=O)=O)CC4)cn2)cc1 [Compound 213] | – | 6.4 | 7.0 | 200 | 100 | > 10000 |
| CC(CO)c1ccc(COc2ccc(-c3c(-c4ccncc4)nn4c3C(=O)NCC4)cc2)cc1 (centres unmarked) [Compound 127] | > 10000 | – | 6.6 | 259 | 398 | – |
| CC(C)c1ccc(COc2ccc(-c3c(-c4ccncc4)nn4c3C(=O)N(CC(O)CO)CC4)cc2)c(F)c1F (centres unmarked) [Compound 102] | – | 6.4 | 6.7 | 191 | 794 | – |
| COc1ccc(COc2ccc(-c3c(-c4ccncn4)nn4c3C(=O)NCC4)cc2)cc1 [Compound 157] | > 10000 | – | 6.1 | 264 | 1000 | – |
| O=C1c2c(-c3ccc(OCc4ccc(C5CC5)nc4)cc3)c(-c3ccncn3)nn2CCN1CCO [Compound 169] | > 10000 | 5.6 | 6.2 | 143 | 1000 | – |
| COC(=O)c1cccc(COc2ccc(-c3c(-c4ccncc4)nn4c3C(=O)NCC4)cc2)c1 [Compound 131] | > 10000 | – | 6.2 | 222 | 631 | – |
| COc1cccc(COc2ccc(-c3c(-c4ccncc4)nn4c3C(=O)NCC4)cc2)c1 [Compound 113] | – | – | 6.0 | 242 | 794 | > 10000 |
| CC(C)(CO)c1ccc(COc2ccc(-c3c(-c4ccncc4)nn4c3C(=O)NCC4)cc2)cc1 [Compound 125] | > 10000 | – | 6.7 | 280 | 316 | – |
| CC(C)c1ccc(C2Oc3ccc(-c4c(-c5ccncc5)nn5c4C(=O)NCC5)cc3NC2=O)cc1 (centres unmarked) [Compound 231] | – | 5.7 | 6.4 | 291 | 794 | > 10000 |
| CC1CNCc2c(-c3ccc(OCc4ccc(C5CC5)cc4)cc3)c(-c3ccncc3)nn21 (centres unmarked) [Compound 197] | – | – | 5.8 | 153 | 794 | > 10000 |
| CC(C)c1ccc(COc2ccc(-c3c(-c4ccncc4)nn4c3C(=O)N(CCO)CC4)c(F)c2)cc1CCO [Compound 205] | > 10000 | 7.5 | 7.8 | 151 | 7.94 | – |
| N#Cc1cccc(COc2ccc(-c3c(-c4ccncc4)nn4c3C(=O)NCC4)cc2)c1 [Compound 124] | > 10000 | – | 5.7 | 238 | 2000 | – |
| CC(C)c1ccc(COc2ccc(-c3c(-c4ccncc4)nn4c3C(=O)N(C(=O)OC(C)(C)C)CC4)cc2)cc1 [Compound 70] | – | 6.1 | 6.4 | 147 | 3160 | > 10000 |
| N#Cc1ccc(COc2ccc(-c3c(-c4ccncc4)nn4c3C(=O)NCC4)cc2)cc1Cl [Compound 141] | > 10000 | – | 6.4 | 257 | 631 | – |
| COc1cc(COc2ccc(-c3c(-c4ccncc4)nn4c3C(=O)NCC4)cc2)ccc1C(C)C [Compound 80] | > 10000 | – | 6.9 | 232 | 126 | – |
| O=C1NCCn2nc(-c3ccncn3)c(-c3ccc(OCc4ccc(C5CC5)nc4)cc3)c21 [Compound 168] | > 10000 | 6.2 | 6.5 | 254 | 398 | – |
| CC(C)c1ccc(COc2ccc(-c3c(-c4ccncc4)nn4c3C(=O)N(C)CC4)cn2)cc1 [Compound 211] | – | 7.3 | 7.3 | 57 | 31.6 | > 10000 |
| CC(C)c1cccc(COc2ccc(-c3c(-c4ccncc4)nn4c3C(=O)NCC4)cc2)c1 [Compound 110] | > 10000 | – | 6.9 | 268 | 126 | – |
| CC(C)NC(=O)CN1CCn2nc(-c3ccncc3)c(-c3ccc(OCc4ccc(C(C)C)cc4)cc3)c2C1 [Compound 178] | – | – | 6.6 | 188 | 200 | > 10000 |
| CC(C)Cc1ccc(COc2ccc(-c3c(-c4ccncc4)nn4c3C(=O)NCC4)cc2)cc1 [Compound 108] | > 10000 | – | 7.0 | 233 | 126 | – |
| COc1cc(OCc2ccc(C(C)C)cc2)ccc1-c1c(-c2ccncc2)nn2c1C(=O)NCC2 [Compound 34] | > 10000 | – | 6.6 | 276 | 316 | – |
